Experimental data as given in patent US12090157B2, “Non-invasive pet imaging of CDK4/6 activation in cancer” (New York University, priority 2020, dated 2024).
Where “and” joins values, the source holds several entries; their conditions need not be identical. Equal entries are not always repeated. Where two headings read alike, the source gives them in different places. One block for each molecule: values may come before it.

Key:
CDK4/6 = assay: IC50 binding affinity, competitive ATP quantitative assay (CellTiter-Glo, MCF-7 cells); format: cell-based, human; settings: for binding affinity to CDK4/6: FIG. 2A legend
Protocol: (§1) IC50 values were determined using a competitive ATP quantitative assay. […]. MCF-7 cells were cultured at 37° C. for 4 h. Then, ^19F-CDKi or vehicle was added at different concentration and incubated at 37° C. for 96 h. Cell viability was then assessed using CellTiter-Glo® Luminescent Assay (Promega, Madison, WI), used accordingly to manufacturer's guidelines. Cell viability inhibition (%) was calculated according to the formula [1−(mean luminosity of treated sample/mean luminosity of vehicle control)]×100. IC50 for growth or viability inhibition was calculated using Graph Prism 8 (GraphPad Software Inc, La Jolla, CA). We used ^18F-CDKi and palbobiclib for competitive displacement studies. MCF-7 cells were seeded in a 12 wells plate (1×10^5 cells 24 h prior the experiment). The next day, a fixed concentration of ^18F-CDKi (50 nM) was co-incubated with linearly doubling concentrations of palbociclib (from 0 to 500 nM) at 37° C. for 2 h. Then, the cells were washed twice with PBS, lysed with 1N NaOH, and the activity (CPM) measured in a γ-counter for bound ^18F radioligand. The percentage of bound radioligand was finally plotted against palbociclib concentration. Competitive displacement curves were fitted using Graph Prism 8 (GraphPad Software Inc, La Jolla, CA).

MCF-7 cells [1] = assay: In vitro cell-associated uptake of ^18F-CDKi; format: cell-based, human
Protocol: MCF-7 cells were seeded in a 6 well plates (5×10^6 cells 24 hours prior the experiment). The next day, ^18F-CDKi was added alone or together with a 50-fold excess Palbociclib and incubated at 37° C. for 1 h. After 1 h, cells were firstly washed three times with PBS, then lysed with 1N NaOH, and finally media and cells counted in a γ-counter. The percentage of bound/unbound radioligand at each time point was measured in triplicate and plotted as a function of time.

Blood half-life = format: in vivo, mouse; settings: mice, single bolus intravenous injection
Protocol: The blood half-life of ^18F-CDKi was calculated by measuring the activity of blood samples collected at different time points p.i. (5, 15, 30, 45, 60, 90 and 120 minutes). Female nude mice (n=3) were injected via lateral tail vein with ^18F-CDKi (and blood samples obtained by retro-orbital bleed using tared capillary tubes. Samples were weighed, and activity was measured by γ-counter. The blood half-life was calculated using Graph Prism 7 (GraphPad Software, La Jolla, CA) using a two-phase decay least squares fitting method and expressed as % ID/g.

In vitro stability = format: in vitro ADME; settings: after 4 h of incubation
[2] = Octanol/water partition coefficient; format: physicochemical; settings: 1-octanol / phosphate buffered saline pH 7.4
Protocol: The Chemical Hydrophobicity Indices (CHI) were measured using a previously developed procedure (Valkó, Journal Chromatogr A. 2004; 1037:299-310, Valkó et al., Anal Chem. 1997; 69:2022-2029. Briefly, reverse phase HPLC was used to measure the retention times of a set of standards with known CHI. A standard curve was then created to calculate the CHI of […] based on the HPLC retention time. The lipophilicity of the ^18F-CDKi was acquired by adding 0.09 mBq to a mixture of 0.5 mL of 1-octanol and 0.5 mL of 25 mM phosphate buffered saline (pH 7.4) and mixed for 5 minutes. Then, the mixture was centrifuged at 15.000 rpm for 5 minutes. 100 μL samples were obtained from organic and aqueous layers, and the radioactivity of the samples were measured in a WIZARD^2 automatic γ-counter. The experiment was performed in triplicate, and the resulting log Pow was calculated as the mean±SD.

MCF-7 xenografts = assay: MicroPET/CT imaging and ex-vivo biodistribution in MCF-7 bearing mice; set-up: species or system mouse; settings: for kidney concentration / liver concentration / small intestines concentration: 2 h post injection
Protocol: Female athymic nude CrTac:NCr-Foxnlnu mice (n=35) were purchased from Taconic Laboratories (Hudson, NY). 20 mice received subcutaneous injections with 2×10^6 human MCF-7 cancer cells in Matrigel® (BD Biosciences, San Jose, CA) into each right shoulder and were allowed to grow for approximately two months until the tumors reached ˜10 mm in diameter. All mice were supplemented with 60 days 0.72 mg slow release estradiol pellets purchased from Innovative Research of America (IRA, Sarasota, FL) implanted in the left flank. Mice were anesthetized (isoflurane 1.5%, 2 L/min medical air) during tumor implantation and microPET imaging.
Twelve subcutaneous MCF-7 implanted athymic nude mice were divided in two groups (blocked and unblocked) and administered with ^18F-CDKi (˜7.4 mBq) via tail vein injection. Approximately 5 min prior to PET acquisition, mice were anesthetized by inhalation of a mixture of isoflurane (Baxter Healthcare, Deerfield, IL, USA; 2% isoflurane, 2 L/min medical air) and positioned on the scanner bed. Anesthesia was maintained using a 1% isoflurane/O2 mixture. PET data for each mouse was recorded and acquired at 30 min p.i and at 120 min p.i. Blocking studies were performed after a pre-injection of 50-fold excess palbociclib (8.4 nmol, 3.8 μg, 30 min before). The duration of the microPET/CT imaging sessions was 20 min each.
Biodistribution of ^18F-CDKi was performed in subcutaneous MCF-7 bearing athymic nude mice (n=8). Mice were divided (n=4/group) in blocked and unblocked (50-fold excess palbociclib, 30 minutes before) and administered with ^18F-CDKi via tail vein injection (1.85 mBq). At 120 minutes post injection of the radioligand, the mice were sacrificed and organs of interest were collected. Organs were weighed, and activity was measured with a WIZARD^2 automatic γ-counter (PerkinElmer, Boston, MA). The radiopharmaceutical uptake was expressed as a percentage of injected dose per gram (% ID/g) using the following formula: [(activity in the target organ/grams of tissue)/injected dose]×100%.

MCF-7 cells [3] = assay: Competitive displacement of ^18F-CDKi by palbociclib in MCF-7 cells; format: cell-based, human; settings: 50 nM ^18F-CDKi, palbociclib 0 to 500 nM, 2 h, read-out: inhibition effect, competitive displacement of palbociclib
Protocol: as §1

[4] = first of two values joined by 'or'
[5] = second of two values joined by 'or'

IC50 (CDK4/6; FIG. 2A, read-out: targeting affinity to CDK4/6): ~13 nM | IC50 against both CDK4 and CDK6 kinases (CDK4/6; in words): single digit nanomolar | IC50 (CDK4/6; in words, similar to the parent compound palbociclib): nanomolar range | in vivo blood half-life t1/2(weighted) (Blood half-life): 7.03 min and 7 min | in vitro stability, parent compound intact (In vitro stability): more than 98% | octanol/water phase partition coefficient (log DO/W) [2]: 1.91±0.24 | logD ([2]; read-out: octanol/water phase partition coefficient (log DO/W)): 1.91 ± 0.24 | kidney concentration (MCF-7 xenografts; [4]): 7.99±0.7 % ID/g | liver concentration (MCF-7 xenografts; [4]): 6±0.5 % ID/g | small intestines concentration (MCF-7 xenografts; [4]): 9.6±2.7 % ID/g | kidney concentration (MCF-7 xenografts; [5]): 9.6±0.98 % ID/g | liver concentration (MCF-7 xenografts; [5]): 6.77±1.15 % ID/g | small intestines concentration (MCF-7 xenografts; [5]): 10±1.19 % ID/g | tumor-to-blood ratio (MCF-7 xenografts; MCF-7 bearing mice, 2 h p.i.): > 5 | tumor-to-bone ratio (MCF-7 xenografts; MCF-7 bearing mice, 2 h p.i.): > 10 | tumor-to-muscle ratio (MCF-7 xenografts; MCF-7 bearing mice, 2 h p.i.): > 15 | tumor uptake after injection of palbociclib prior to the radiotracer (MCF-7 xenografts; MCF-7 bearing mice, in words): negligible | tumor uptake, blocked (MCF-7 xenografts; MCF-7 xenografts, 50-fold excess of cold palbociclib pre-injected): ~0.3 % ID/g | tumor uptake (MCF-7 xenografts; MCF-7 xenografts, ^18F-CDKi alone, 2 h p.i.): ~4 % ID/g | clearance route (MCF-7 xenografts; PET imaging and biodistribution, mice): hepatobiliary route
Structure (SMILES): CC(=O)c1c(C)c2cnc(Nc3ccc(N4CCN(C(=O)c5ccc([18F])cc5)CC4)cn3)nc2n(C2CCCC2)c1=O [^18F-CDKi]
binding affinity to CDK4/6 (CDK4/6; in words): nanomolar | cell uptake blocked by excess of cold, unlabeled palbociclib (MCF-7 cells [1]): > 98% | maximum intracellular concentration (MCF-7 cells [1]; 10 minutes post incubation): ~65% | tracer uptake when co-incubated with a molar excess of Palbociclib (MCF-7 cells [1]; blocked): < 5%

IC50 (MCF-7 cells [3]): ~18 nM
Structure (SMILES): CC(=O)c1c(C)c2cnc(Nc3ccc(N4CCN(C(=O)c5ccc(F)cc5)CC4)cn3)nc2n(C2CCCC2)c1=O [^19F-CDKi]
binding affinity to CDK4/6 (CDK4/6; in words): nanomolar
